# Laboratory results reported in patent US20150119267A1, “INHIBITION OF COLONY STIMULATING FACTOR-1 RECEPTOR SIGNALING FOR THE TREATMENT OF BRAIN CANCER” (SLOAN-KETTERING INSTITUTE FOR CANCER RESEARCH, priority 2012, published 2015).
# “Also recorded” adds a separate entry of the source.
# Legend:
# [1] = test system: secondary neurospheres from PDG tumors; assay: Secondary neurosphere formation assay; format: cell-based, mouse; conditions: concentrations up to 6700 nM
# Method: For neurosphere formation the cell pellet was resuspended in neurosphere media consisting of mouse NSC Basal Media, NSC proliferation supplements, 10 ng/ml EGF, 20 ng/ml basic-FGF and 1 mg/ml Heparin (Stem Cell Technologies). Fresh media was added every 72 hours for 2 weeks. Primary neurospheres were collected, mechanically disaggregated to a single cell suspension and propagated by serial passaging. To generate glioma cell lines, secondary neurospheres were dissociated to single cell suspensions and cultivated in DMEM+10% FBS as a monolayer (10). Multiple glioma cell lines were derived from independent mice, denoted GBM1-4 herein. Glioma cells were infected with a pBabe-H2B-mCherry construct as described previously (11).
# Primary neurospheres were disaggregated to a single cell suspension and 5×10^3 cells were plated in a 6 well plate in neurosphere media in the presence of the CSF-1R inhibitor or DMSO as vehicle. Media was changed every 48 hours. Secondary neurosphere formation was assayed by counting the number of neurospheres obtained after 2 weeks.
# [2] = test system: CRL-2467 microglia cell line; assay: MTT assay, CRL-2467 microglia; format: cell-based
# Method: U-87 MG (HTB-14) glioma and CRL-2467 microglia cell lines were purchased from ATCC. The U-87 MG cell line was cultured in DMEM+10% FBS. The CRL-2467 cell line was cultured in DMEM+10% FBS with 30 ng/ml recombinant mouse CSF-1.
# (§1) Cell growth rate was determined using the MTT cell proliferation kit (Roche). […] Media was changed every 48 hours. BMDM and CRL-2467 cells were supplemented with 10 ng/ml and 30 ng/ml recombinant mouse CSF-1 respectively unless otherwise indicated. Ten μl of MTT labeling reagent was added to each well and then incubated for 4 hours at 37° C., followed by the addition of 100 μl MTT solubilization reagent overnight. The mixture was gently resuspended and absorbance was measured at 595 nm and 750 nm on a SPECTRAMAX 340 pc plate reader (Molecular Devices).
# [3] = test system: PDGF-driven gliomas (PDG); assay: Long-term survival trial in PDG mice; format: in vivo
# [4] = target: >200 kinases; assay: biochemical kinase panel; conditions: read-out: biochemical IC50 values for >200 kinases tested; except cKIT and PDGFRβ; data not shown
# [5] = test system: Mrc1; assay: Mrc1 expression in primary glioma cultures (flow cytometry); format: cell-based, mouse; conditions: CD45+CD11b+ cells
# Method: Macrodissected tumors were digested to a single cell suspension by incubation for 8-12 minutes at 37° C. as described above. The cell suspension was washed with Neural Stem Cell (NSC) Basal Media (Stem Cell Technologies), and centrifuged at low speed (750 rpm Sorvall Legend RT), to remove debris. To derive mouse primary glioma cultures, the cell pellet was resuspended in DMEM containing 10% FBS (Gibco). These primary cultures were used at early passage (P2-P3), and contain a mixture of different cell types found in gliomas including tumor cells, macrophages, and astrocytes as determined by immunofluorescence staining. Primary glioma cultures were grown for 24 hours on poly-L-lysine coated coverslips (BD Biocoat). Cells were then fixed with 4% PFA in 0.1M phosphate buffer overnight at 4° C., permeabilized with 0.1% Triton-X for 5 minutes and blocked with 0.5% PNB for at least one hour. […]
# For mouse primary glioma cultures (containing a mixed population of tumor cells, TAMs, astrocytes etc.; see FIG. 15), 1×10^6 cells were cultivated in DMEM+10% FBS in the presence of the CSF-1R inhibitor or DMSO as vehicle (n=6 independently isolated cultures). […] Cells were counted and incubated with 1 μl of Fc Block (BD Pharmingen) per 10^6 cells for at least 15 minutes at 4° C. […]
# [6] = test system: CD11b+Gr-1− TAMs; assay: Gene expression profiling of TAMs (microarray); format: in vivo, mouse
# [7] = test system: Ink4a/Arf−/− BMDMs; assay: MTT assay, Nestin-Tv-a;Ink4a/Arf−/− BMDMs; format: cell-based, mouse
# Method: as §1
# [8] = test system: primary bone marrow-derived macrophages (BMDMs); assay: MTT assay, primary BMDMs; format: cell-based, mouse; conditions: wild-type C57BL/6 BMDMs in culture, 67 nM
# Method: as §1
# [9] = BLZ945 pharmacokinetics, blood-brain barrier; format: in vivo, mouse; conditions: single dose 200 mg/kg oral gavage
# Method: The CSF-1R inhibitor was obtained from the Novartis Institutes for Biomedical Research (Emeryville, Calif.). The drug was formulated in 20% captisol at a concentration of 12.5 mg/ml. The vehicle control, 20% captisol, was processed in the same manner. […] To determine if the drug was able to cross the blood-brain barrier, tumor-bearing mice were treated with a single dose of the CSF-1R inhibitor and sacrificed at different time points post-treatment. Plasma, and the left (contralateral) and right (tumor-bearing) hemispheres of the brain were snap frozen in liquid nitrogen for subsequent analysis of CSF-1R inhibitor concentrations in the tissue. For long-term survival studies, dosing begun at 17 days/2.5 weeks post-injection of RCAS-PDGF-B-HA. For the fixed time-point studies, mice underwent MRI scans at 4-5 weeks post-injection of RCAS-PDGF-B-HA, as previously described (5). To determine tumor volume, regions of interest (ROI) were circumscribed on T2 weighted images and their corresponding area in mm^2 was multiplied by the slice height of 0.7 mm. The total tumor volume is the sum of the ROI volume in each slice, and the volume for the first and last slice in which the tumor appears is halved to approximate the volume of a trapezoid. When tumor volume was in the range of 4.5-40 mm^3, animals were randomly assigned to treatment groups. […]
# [10] = test system: CSF1-dependent cell proliferation; assay: CSF1-dependent cell proliferation; format: cell-based; conditions: read-out: inhibits CSF1-dependent cell proliferation
compound,measurement,setting,value
CNC(=O)c1cc(Oc2ccc3nc(N[C@@H]4CCCC[C@H]4O)sc3c2)ccn1 [BLZ945],tumor neurosphere formation (number or size of secondary neurospheres),[1],no effect; also recorded: does not affect the number or size
same,survival / viability of microglia cell line,[2],reduced viability; also recorded: blocks survival
same,tolerability,"[3]; 200 mg/kg once daily, up to 26 weeks",well-tolerated
same,asymptomatic mice with no detectable lesions at end stage,[3]; 26-week endpoint,55.6%
same,cohort still alive at trial endpoint (symptom-free survival),"[3]; 26 weeks post-injection, 200 mg/kg once daily from 2.5 weeks",64.3%
same,tumor grade,"[3]; versus vehicle, long-term survival trial",significantly less malignant tumors
same,IC50,[4],> 10 µM
same,Mrc1 in primary glioma cultures containing TAMs,[5],decreased
same,targets of Egr2 (GSEA),[6]; 7 days treatment,downregulated
same,upregulated differentially expressed genes,"[6]; BLZ945 versus vehicle, 7 days treatment",52 genes
same,classically activated/M1 macrophage markers,[6]; with the exception of IL-1 beta,not differentially expressed
same,BMDM survival,[7],blocked the survival
same,macrophage (BMDM) survival / viability,[8],significantly decreases the viability; also recorded: blocks macrophage survival
same,blood-brain barrier crossing,[9],able to effectively cross the blood-brain barrier
same,concentration in contralateral non-tumor bearing hemisphere versus tumor,[9]; all time points tested,comparable to the level achieved in the tumor
same,IC50,[10],67 nM
